SMILES strings stand for the structures.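 Dose response: 5 concentrations. Exposure: 48 h. Format: 96-well plates. Endpoint: linear interpolation; highest concentration if not reached. GI50 = concentration required for 50% inhibition of growth.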 The source made the active and inactive calls. Rule as the data show it: active = GI50 up to about 1.1 µM and inactive = higher. Where a SMILES comes first, the peptide text is derived from it. [ ]: non-standard residue; d: D form. The star is where a group is joined. Phe(4-NO2) = N[CH](Cc1ccc([N+](=O)[O-])cc1)C(=O)O; Boc = CC(C)(C)OC(=O)*

Twelve compounds from ChEMBL document CHEMBL1201862, “PubChem BioAssay data set” (2004) can be followed below.

Test systems include HCC 2998; HCT-116; Hs-578T; IGROV-1; MDA-MB-231; MDA-N; Malme-3M; NCI-H226; NCI-H460; RPMI-8226; SF-295; SN12C; SNB-19; SW-620; UACC-62; UO-31; HOP-92; SK-OV-3; T47D.
What all share (test): NCI tumour cell line growth inhibition, 48 h

As to `COc1cc(C2C3=C(COC3=O)Oc3cc4c(cc32)OCO4)cc(OC)c1OC(C)=O` (configuration not stated), the GI50 in the experiment on HCC 2998 was 0.0547 µM (active); in the experiment on HCT-116 it was 0.0207 µM (active); in the experiment on Hs-578T it was 0.0101 µM (active); with IGROV-1, 0.0239 µM (active); with MDA-MB-231, 0.038 µM (active); in the experiment on MDA-N it was < 0.01 µM (active). The GI50 was < 0.0215 µM (active) with Malme-3M; < 0.0376 µM (active) in the experiment with NCI-H226; 0.0212 µM (active) with NCI-H460; 0.0318 µM (active) in the experiment on RPMI-8226; 0.0316 µM (active) in the experiment on SF-295; 0.619 µM (active) in the experiment on SN12C. For the same compound, the GI50 was 0.024 µM (active) with SNB-19, 0.0202 µM (active) in the experiment with SW-620, < 0.01 µM (active) in the experiment on UACC-62 and < 0.0124 µM (active) with UO-31.

For the compound `Cc1ccc(-c2[nH]c(=O)n(C3OC(CO)C(O)C(O)C3O)c(=O)c2C#N)cc1` (configuration not stated), the GI50 in the experiment on HCC 2998, in the experiment with HCT-116, in the experiment with HOP-92, in the experiment on Hs-578T, in the experiment on IGROV-1 and in the experiment with MDA-MB-231 was > 100 µM (inactive) each time. Also, the GI50 in the experiment on NCI-H226, in the experiment with NCI-H460, with RPMI-8226, in the experiment on SF-295, in the experiment on SK-OV-3 and with SN12C was > 100 µM (inactive) each time. The GI50 in the experiment with SNB-19, in the experiment with SW-620, with T47D, in the experiment on UACC-62 and in the experiment on UO-31 was > 100 µM (inactive) throughout.

As for `CC#CCCCC1(C)CCCNC1=S` (configuration not stated), the GI50 in the experiment with HOP-92, in the experiment with Hs-578T, in the experiment with IGROV-1, in the experiment on MDA-MB-231, with Malme-3M and with NCI-H460 was > 10 µM (inactive) throughout. For the same compound, the GI50 in the experiment with SF-295, with SK-OV-3, with SN12C, in the experiment with SNB-19, in the experiment on SW-620 and in the experiment with T47D was > 10 µM (inactive) each time. Moreover, the GI50 in the experiment on UACC-62 and in the experiment on UO-31 was > 10 µM (inactive) throughout.

Regarding `OC(c1ccccc1)C(F)(F)c1nc2ccccc2o1` (configuration not stated), the GI50 in the experiment on HCC 2998, in the experiment on HCT-116, with HOP-92, in the experiment with Hs-578T, in the experiment with IGROV-1 and with MDA-MB-231 was > 100 µM (inactive) each time. Further, the GI50 was > 100 µM (inactive) in the experiment on NCI-H226; > 100 µM (inactive) with NCI-H460; 70 µM (inactive) in the experiment on RPMI-8226; > 100 µM (inactive) in the experiment with SF-295; > 100 µM (inactive) in the experiment with SK-OV-3; > 100 µM (inactive) in the experiment on SNB-19. For the same compound, the GI50 is > 100 µM (inactive) in the experiment on SW-620, 55.3 µM (inactive) in the experiment on T47D, > 100 µM (inactive) in the experiment with UACC-62 and > 100 µM (inactive) with UO-31.

As for `N#C[C@@H](c1ccccn1)c1ncccc1[N+](=O)[O-]`, the GI50 with HCC 2998, in the experiment on HCT-116, with Hs-578T, in the experiment with IGROV-1, in the experiment with MDA-MB-231 and with MDA-N was > 100 µM (inactive) in each case. Moreover, the GI50 in the experiment on Malme-3M, in the experiment on NCI-H460, in the experiment on RPMI-8226, in the experiment with SF-295, in the experiment with SK-OV-3 and in the experiment on SN12C was > 100 µM (inactive) each time. For the same compound, the GI50 with SNB-19, with SW-620, in the experiment with T47D, in the experiment on UACC-62 and with UO-31 was > 100 µM (inactive) throughout.

As to `O=C1/C(=C/C=C/c2ccccc2)CCC1CNc1ccccc1` (configuration not stated), the GI50 was > 68.5 µM (inactive) in the experiment with HCC 2998; 17.9 µM (inactive) in the experiment with HCT-116; 47.8 µM (inactive) with HOP-92; > 67 µM (inactive) in the experiment with Hs-578T; 23.4 µM (inactive) in the experiment on IGROV-1; 22 µM (inactive) in the experiment on MDA-MB-231. Also, the GI50 in the experiment with Malme-3M was 58.6 µM (inactive); with NCI-H226, > 100 µM (inactive); in the experiment on NCI-H460 it was > 88.7 µM (inactive); in the experiment on RPMI-8226 it was 1.59 µM (inactive); with SF-295 it was > 100 µM (inactive); with SK-OV-3, > 100 µM (inactive). For the same compound, the GI50 in the experiment on SN12C was 23.2 µM (inactive); with SNB-19, > 55 µM (inactive); in the experiment on SW-620, 18.4 µM (inactive); in the experiment with T47D, 26.2 µM (inactive); in the experiment with UACC-62 it was 50.4 µM (inactive); with UO-31, 59.8 µM (inactive).

As for `O=C(O/N=c1/ccc(=O)/c(=N\OC(=O)c2ccccc2)c1=O)c1ccccc1`, the GI50 is > 100 µM (inactive) with HCC 2998; > 100 µM (inactive) in the experiment on HCT-116; > 100 µM (inactive) with HOP-92; > 100 µM (inactive) in the experiment on Hs-578T; 89.3 µM (inactive) with IGROV-1; > 100 µM (inactive) with MDA-N. The GI50 with NCI-H226 is > 100 µM (inactive); in the experiment with NCI-H460, > 100 µM (inactive); in the experiment with RPMI-8226, 79.8 µM (inactive); with SF-295, > 100 µM (inactive); in the experiment on SK-OV-3, > 100 µM (inactive); in the experiment on SN12C, > 100 µM (inactive). The GI50 in the experiment with SNB-19 is 76.2 µM (inactive); in the experiment on SW-620 it was > 100 µM (inactive); in the experiment on T47D, > 100 µM (inactive); in the experiment on UO-31, > 100 µM (inactive).

With `CCCCC1Nc2ccccc2-c2ccnc(Cl)c21` (configuration not stated), the GI50 in the experiment on HCC 2998 was 38.7 µM (inactive); in the experiment with HCT-116, 15.7 µM (inactive); in the experiment on HOP-92, 14.2 µM (inactive); in the experiment with Hs-578T, 15 µM (inactive); in the experiment with IGROV-1 it was 19 µM (inactive); in the experiment on MDA-MB-231 it was 17.1 µM (inactive). The GI50 with MDA-N is 15.6 µM (inactive); with Malme-3M it was 20.8 µM (inactive); in the experiment with NCI-H226, 17.6 µM (inactive); in the experiment with NCI-H460 it was 32.1 µM (inactive); in the experiment on RPMI-8226, 12.2 µM (inactive); in the experiment with SF-295, 21.5 µM (inactive). The GI50 is 20.3 µM (inactive) in the experiment with SK-OV-3; 20.8 µM (inactive) in the experiment on SN12C; 24.1 µM (inactive) in the experiment on SNB-19; 21.2 µM (inactive) in the experiment with SW-620; 13.7 µM (inactive) in the experiment on UACC-62; 20 µM (inactive) in the experiment on UO-31.

Turning to `C/C(=N\NC(=O)c1ccc(Cl)cc1)c1nc2cccnc2[nH]1`, the GI50 with HCC 2998 was > 100 µM (inactive); in the experiment on HCT-116 it was 32.6 µM (inactive); in the experiment with Hs-578T, 27.3 µM (inactive); in the experiment on IGROV-1 it was 15.1 µM (inactive); with MDA-MB-231, 36.8 µM (inactive); with MDA-N it was 30.5 µM (inactive). Besides, the GI50 in the experiment with Malme-3M is 14.2 µM (inactive); in the experiment with NCI-H460 it was 14.7 µM (inactive); with RPMI-8226, 27 µM (inactive); in the experiment with SF-295, 45.8 µM (inactive); with SK-OV-3, 20.4 µM (inactive); in the experiment on SN12C, 27.6 µM (inactive). Besides, the GI50 in the experiment on SNB-19 is 18.9 µM (inactive); in the experiment on SW-620, 28.9 µM (inactive); with T47D it was 22.8 µM (inactive); in the experiment on UACC-62, 20.7 µM (inactive); in the experiment on UO-31, 26.7 µM (inactive).

With `CCN1CCCC(C#N)(c2ccccc2)CC1` (configuration not stated), the GI50 in the experiment on HCC 2998 is > 100 µM (inactive); in the experiment with HCT-116, > 100 µM (inactive); in the experiment with HOP-92, > 100 µM (inactive); with Hs-578T it was 61.7 µM (inactive); with IGROV-1 it was > 100 µM (inactive); with MDA-N it was > 100 µM (inactive). Also, the GI50 in the experiment with Malme-3M, in the experiment on NCI-H460, with RPMI-8226, in the experiment with SF-295, in the experiment on SK-OV-3 and with SNB-19 was > 100 µM (inactive) each time. In addition, the GI50 with SW-620, in the experiment with T47D and in the experiment on UO-31 was > 100 µM (inactive) throughout.

With `CCOC(=O)CCC(NC(=O)C(Cc1ccc([N+](=O)[O-])cc1)NC(=O)OC(C)(C)C)C(=O)NC(CCC(=O)OCC)C(=O)OCC` (configuration not stated) (Boc-[Phe(4-NO2)]-Glu(OEt)-Glu(OEt)-OEt; configuration not given here), the GI50 in the experiment with HCC 2998 was 15.8 µM (inactive); in the experiment with HCT-116 it was 18.3 µM (inactive); in the experiment on HOP-92, 15.8 µM (inactive); in the experiment with Hs-578T, 18.7 µM (inactive); in the experiment with IGROV-1, 20.3 µM (inactive); with MDA-MB-231, 27 µM (inactive). Moreover, the GI50 with MDA-N is 21.1 µM (inactive); in the experiment on Malme-3M, 18.2 µM (inactive); in the experiment with NCI-H226, 16.8 µM (inactive); in the experiment on NCI-H460, 23.4 µM (inactive); with RPMI-8226 it was 18.1 µM (inactive); in the experiment on SN12C, 22.3 µM (inactive). For the same compound, the GI50 with SNB-19 was 95.9 µM (inactive); with SW-620, 17.9 µM (inactive); in the experiment with UACC-62, 16.8 µM (inactive); in the experiment with UO-31, > 100 µM (inactive).

`O=C1CCC(N2C(=O)c3ccccc3C2=O)C(=O)N1` (configuration not stated) [THALIDOMIDE]: the GI50 with HCC 2998, in the experiment on HCT-116, in the experiment with HOP-92, in the experiment with Hs-578T, in the experiment on IGROV-1 and in the experiment with MDA-N was > 100 µM (inactive) in each case. The GI50 in the experiment with Malme-3M, in the experiment on NCI-H460, in the experiment on RPMI-8226, in the experiment with SF-295, in the experiment with SK-OV-3 and with SN12C was > 100 µM (inactive) throughout. Also, the GI50 in the experiment on SNB-19, with SW-620, with T47D, in the experiment on UACC-62 and with UO-31 was > 100 µM (inactive) in each case.
